According to ChEMBL document CHEMBL4680126, “Indazolyl-substituted piperidin-4-yl-aminopyrimidines as HIV-1 NNRTIs: Design, synthesis and biological activities” (Eur J Med Chem, 2020):

How the values were obtained:
[1] = system: Human immunodeficiency virus 2; test: Antiviral activity against HIV-2 ROD strain infected in human MT4 cells assessed as reduction in virus-induced cytopathogenicity by MTT assay; conditions: Human immunodeficiency virus 2, ISOLATE ROD
[2] = system: Human immunodeficiency virus 1; test: Antiviral activity against wild type HIV-1 strain 3B infected in human MT4 cells assessed as reduction in virus-induced cytopathogenicity by MTT assay; type: functional, organism-based; conditions: Human immunodeficiency virus 1, 3B
[3] = Cytotoxicity against human MT4 cells assessed as inhibition of cell viability by measuring reduction in absorbance at OD540 by MTT assay; type: cell-based
[4] = system: Human immunodeficiency virus 1; test: Antiviral activity against HIV-1 RES056 mutant strain infected in human MT4 cells assessed as reduction in virus-induced cytopathogenicity by MTT assay; type: functional, organism-based; conditions: Human immunodeficiency virus 1, MT4
[5] = system: Human immunodeficiency virus 1; test: Antiviral activity against HIV-1 E138K mutant strain infected in human MT4 cells assessed as reduction in virus-induced cytopathogenicity by MTT assay; type: functional, organism-based; conditions: Human immunodeficiency virus 1, MT4
[6] = system: Human immunodeficiency virus 1; test: Antiviral activity against HIV-1 Y181C mutant strain infected in human MT4 cells assessed as reduction in virus-induced cytopathogenicity by MTT assay; type: functional, organism-based; conditions: Human immunodeficiency virus 1, MT4
[7] = system: Human immunodeficiency virus 1; test: Antiviral activity against HIV-1 K103N mutant strain infected in human MT4 cells assessed as reduction in virus-induced cytopathogenicity by MTT assay; type: functional, organism-based; conditions: Human immunodeficiency virus 1, MT4
[8] = Selectivity index, ratio of CC50 for cytotoxicity against human MT4 cells reduction in cell viability by MTT assay to EC50 for antiviral activity against wild type HIV-1 strain IIIB infected in human MT4 cells assessed as reduction in virus-induced cytopathogenicity by MTT assay; type: toxicity, cell-based; conditions: read-out: Selectivity Index

| Structure (SMILES) | EC50 [1] [µM] | EC50 [2] [µM] | CC50 [3] [µM] | EC50 [4] [µM] | EC50 [5] [µM] | EC50 [6] [µM] | EC50 [7] [µM] | selectivity ratio [8] |
| --- | --- | --- | --- | --- | --- | --- | --- | --- |
| Brc1ccccc1Oc1ccnc(NC2CCN(Cc3n[nH]c4ccccc34)CC2)n1 | > 5.3 | 0.031 | 5.3 | > 5.3 | 0.48 | 1 | 1.9 | 171 |
| Brc1cccc(Oc2ccnc(NC3CCN(Cc4n[nH]c5ccccc45)CC3)n2)c1 | > 22 | 0.25 | 22 | > 22 | 3.5 | 6.1 | 4.9 | 88 |
| Nc1ccn([C@@H]2CS[C@H](CO)O2)c(=O)n1 [LAMIVUDINE] | 0.021 | 0.018 | > 7.5 | 0.028 | 0.019 | 0.012 | 0.019 | > 417 |
| Brc1ccc(Oc2ccnc(NC3CCN(Cc4n[nH]c5ccccc45)CC3)n2)cc1 | > 24 | 0.21 | 24 | > 24 | 2 | 7.5 | 5.7 | 114 |
| Cc1cn([C@H]2C[C@H](N=[N+]=[N-])[C@@H](CO)O2)c(=O)[nH]c1=O [ZIDOVUDINE] |  |  | > 15 |  | 0.16 |  |  | > 100 |
| Cc1cc(C#N)cc(C)c1Oc1ccnc(NC2CCN(Cc3n[nH]c4ccccc34)CC2)n1 | > 16 | 0.0064 | 16 | 8.7 | 0.057 | 0.11 | 0.077 | 2500 |
| Cc1cc(C#N)cc(C)c1Oc1nc(Nc2ccc(C#N)cc2)nc(N)c1Br [ETRAVIRINE] |  |  | > 87 |  |  |  |  | > 28 |
| FC(F)(F)c1ccc(Oc2ccnc(NC3CCN(Cc4n[nH]c5ccccc45)CC3)n2)cc1 | > 29 | 0.47 | 29 | > 29 | 4.8 | > 29 | 10 | 62 |
| Cc1cccc(C)c1Oc1ccnc(NC2CCN(Cc3n[nH]c4ccccc34)CC2)n1 | > 18 | 0.0086 | 18 | > 18 | 0.084 | 0.4 | 0.22 | 2090 |
| O=C1Nc2ccc(Cl)cc2[C@@](C#CC2CC2)(C(F)(F)F)O1 [EFAVIRENZ] |  | 0.0026 | > 6.3 | 0.24 | 0.0044 |  | 0.076 | > 2420 |
| N#Cc1ccc(Oc2ccnc(NC3CCN(Cc4n[nH]c5ccccc45)CC3)n2)cc1 | > 31 | 0.078 | 31 | > 31 | 1.4 | 3.13 | 2.6 | 397 |
| Clc1ccc(Oc2ccnc(NC3CCN(Cc4n[nH]c5ccccc45)CC3)n2)cc1 | > 30 | 0.23 | 30 | > 30 | 2.3 | 5.6 | 4 | 130 |
| FC(F)(F)c1ccccc1Oc1ccnc(NC2CCN(Cc3n[nH]c4ccccc34)CC2)n1 | > 15 | 0.3 | 15 | > 15 | 4.4 | 6.8 | 8.3 | 50 |
| Cc1ccc(Oc2ccnc(NC3CCN(Cc4n[nH]c5ccccc45)CC3)n2)cc1 | > 32 | 0.14 | 32 | > 32 | 0.77 | 4.3 | 3.8 | 229 |
| Clc1ccccc1Oc1ccnc(NC2CCN(Cc3n[nH]c4ccccc34)CC2)n1 | > 5.4 | 0.037 | 5.4 | > 5.4 | 0.8 | 1.6 | > 5.4 | 146 |
| Cc1cc(Oc2ccnc(NC3CCN(Cc4n[nH]c5ccccc45)CC3)n2)cc(C)c1Cl | > 15 | 0.37 | 15 | > 15 | 4.7 | 8.7 | 8.2 | 41 |
| Clc1cccc(Oc2ccnc(NC3CCN(Cc4n[nH]c5ccccc45)CC3)n2)c1 | > 26 | 0.28 | 26 | > 26 | 4.7 | 9 | 9.8 | 93 |
| Cc1ccnc2c1NC(=O)c1cccnc1N2C1CC1 [NEVIRAPINE] |  | 0.0032 | > 4.6 | 0.034 | 0.0067 | 0.014 | 0.0032 | > 1440 |
| N#Cc1cc(Cl)cc(Oc2ccnc(NC3CCN(Cc4n[nH]c5ccccc45)CC3)n2)c1 | > 27 | 2.3 | 27 | > 27 | > 27 | > 27 | > 27 | 12 |
| N#Cc1cccc(Oc2ccnc(NC3CCN(Cc4n[nH]c5ccccc45)CC3)n2)c1 | > 32 | 1.5 | 32 | > 32 | > 32 | > 32 | > 32 | 21 |
| FC(F)(F)c1cccc(Oc2ccnc(NC3CCN(Cc4n[nH]c5ccccc45)CC3)n2)c1 | > 22 | 0.55 | 22 | > 22 | 7 | 9.7 | 8.9 | 40 |
| Cc1cccc(Oc2ccnc(NC3CCN(Cc4n[nH]c5ccccc45)CC3)n2)c1 | > 32 | 0.39 | 32 | > 32 | 4 | > 11 | 9.6 | 82 |
